Experiment: Ex vivo permeation and penetration across porcine vaginal tissue (Franz diffusion cells, IVPT)
Type: in vitro ADME
From the text: FIG. 116 is an in vitro tissue permeation test in vaginal tissue comparing Compound II to ABI-1968. […] Bars B and C show the tissue penetration of a 0.1% Compound II gel in […]. […] This may be a contributing factor to the performance of ABI-1968 in clinical studies. […] This is described in Example 41.
Freshly harvested porcine vaginal tissue was procured from local slaughterhouse in an ice box. The vaginal tissue was cut open to expose the mucosal surface and tissue was cleaned by gentle flow of PBS pH 7.4. The porcine vaginal tissue was cut into circular portions (approximately 2 cm^2) with help of a […] punch.
The circular portion of tissue was sandwiched between two chambers of a Franz diffusion cell with an active diffusion area of 1 cm^2, and the mucosal layer was exposed to the donor chambers. The resistance across porcine vaginal tissue was measured using a wave form generator to ensure the integrity of the tissue segment used for the permeation study. Porcine vaginal tissue with resistance of ≥3 KΩ.cm^2 was used for study. The receiver chamber was filled with 8 ml of 5% solutol PBS 7.4 pH, which was stirred at 600 rpm with a 3 mm magnetic stir bar and the temperature was maintained at 37° C. with a circulating water bath.
The ˜200 mg of gel was filled into tared 1 mL syringe and gel was dispensed to donor chamber. The gel was spread on to mucosal surface with pre weighed applicator. After loading and spreading of the gel onto surface of mucosal surface, the weight of 1 mL syringe and applicator was noted to determine the exact amount of gel loaded into donor chamber.
Time course (2 h, 4 h and 8 h) porcine vaginal permeation studies were performed. After loading gel, 500 μL samples were withdrawn from the receiver compartment at different time intervals and each time an equal volume of fresh receiver media was used to replace withdrawn samples. The sample withdrawn at each time interval were stored immediately in −20° C. until analysis. After 2, 4 and 8 h, the formulation was removed from the donor chamber with help of syringe and cleaned with cotton swab. The tissue was removed and washed gently with wash solution (50% methanol in water) 5 times and alternatively cleaning with cotton swab.
An 8 mm punch of active diffusion area of washed porcine vaginal tissue was removed, weighed and transferred into a tube. This tube was immediately placed into dry ice for ˜15 min. After specified time, tissue was removed and placed in precooled dish. The tissue was minced into smaller pieces on a dish with a precooled surgical blade. The minced tissue was transferred to sample tubes and dish was rinsed with 1 ml of 5% solutol in PBS 7.4 pH and transferred to same tissue sample tube. These tubes were stored in −70° C. until analysis.
The samples stored at −20° C. was removed and thawed at room temperature for 30 min. The drug from receptor fluid was centrifuged at 13000 rpm for 5 min and to 200 μL of supernatant equal volume of extraction solvent was added. These samples were centrifuged at 13000 rpm for 5 min and supernatant was transferred into vials for analysis.
The minced tissue samples stored at −70° C. were removed and thawed at room temperature for ˜90 min. The samples were kept for shaking at room temperature for 4 h in BioShaker. After 4 h, samples were centrifuged at 13000 rpm for 5 min. To 100 μL of supernatant, 400 μL of extraction solvent was added and vortexed for 2 min. […]

Compound: CCCCCCCCCCCCCCCCCCOCCOP(=O)(O)COCCn1cnc2c(=O)[nH]c(N)nc21 [ABI-1968]
- Concentration in vaginal tissue (3% dose (FIG. 116)): < 15 ng/mL
- Tissue penetration (porcine vaginal tissue, FIG. 116, Compound II 0.1% gel, ABI-1968 1% and 3% formulations): substantially smaller degree
- Tissue concentration (up to a 3% dose (Bar F and G in FIG. 116)): < 15 ng/mg

From patent US20240139220A1, “TREATMENT OF HPV INFECTION” (priority 2022, published 2024)
